Measured values from the NIST ThermoML archive (doi:10.1016/j.jct.2017.07.016).
± gives the expanded uncertainty stated by the source.

Assays:
[1] = xn = mol fraction of the nth substance listed; conditions: 96.7 kPa, Liquid, x2 = 0; for viscosity: Capillary tube (Ostwald / Ubbelohde) method; for mass density: Vibrating tube method
[2] = 96.7 kPa, Liquid; for viscosity: Capillary tube (Ostwald / Ubbelohde) method; for mass density: Vibrating tube method

CC(=O)N(C)C [N,N-dimethylethanamide] + CCCCCCn1cc[n+](C)c1.[Cl-]
[1]
Conditions | mass density [kg/m3] | viscosity [mPa·s]
303.15 K | 931.85 ± 2 | 0.891 ± 0.13
308.15 K | 927.26 ± 2 | 0.834 ± 0.12
313.15 K | 922.66 ± 2 | 0.785 ± 0.12
318.15 K | 918.06 ± 2 | 0.739 ± 0.11
323.15 K | 913.44 ± 1.9 | 0.698 ± 0.11
328.15 K | 908.81 ± 1.9 | 0.661 ± 0.099
333.15 K | 904.16 ± 1.9 | 0.627 ± 0.094
338.15 K | 899.53 ± 1.9 | 0.598 ± 0.09
343.15 K | 894.87 ± 1.9 | 0.567 ± 0.085
348.15 K | 890.19 ± 1.9 | 0.541 ± 0.081
353.15 K | 885.51 ± 1.9 | 0.516 ± 0.078

CCCCCCn1cc[n+](C)c1.[Cl-] [1-hexyl-3-methylimidazolium chloride]
[2]
Conditions | mass density [kg/m3] | viscosity [mPa·s]
303.15 K | 1036.07 ± 2.2 | 5718.5 ± 960
308.15 K | 1033.22 ± 2.2 | 3430.8 ± 560
313.15 K | 1030.38 ± 2.2 | 2146.1 ± 350
318.15 K | 1027.56 ± 2.2 | 1390.4 ± 220
323.15 K | 1024.75 ± 2.2 | 928.1 ± 150
328.15 K | 1021.92 ± 2.2 | 638.79 ± 100
333.15 K | 1019.13 ± 2.2 | 453.59 ± 70
338.15 K | 1016.38 ± 2.2 | 327.52 ± 50
343.15 K | 1013.65 ± 2.2 | 243.04 ± 37
348.15 K | 1010.91 ± 2.2 | 183.45 ± 28
353.15 K | 1008.18 ± 2.2 | 140.06 ± 21

c1ccncc1 [pyridine]
[2]
Conditions | mass density [kg/m3] | viscosity [mPa·s]
303.15 K | 973.09 ± 1.9 | 0.843 ± 0.13
308.15 K | 968.06 ± 1.9 | 0.789 ± 0.12
313.15 K | 963.02 ± 1.9 | 0.741 ± 0.11
318.15 K | 957.97 ± 1.9 | 0.697 ± 0.11
323.15 K | 952.9 ± 1.9 | 0.658 ± 0.099
328.15 K | 947.82 ± 1.9 | 0.622 ± 0.093
333.15 K | 942.72 ± 1.9 | 0.59 ± 0.089
338.15 K | 937.6 ± 1.9 | 0.56 ± 0.084
343.15 K | 932.46 ± 1.9 | 0.533 ± 0.08
348.15 K | 927.3 ± 1.9 | 0.507 ± 0.076
353.15 K | 922.12 ± 1.9 | 0.485 ± 0.073

C[S+](C)[O-] [dimethyl sulfoxide] + CCCCCCn1cc[n+](C)c1.[Cl-]
[1]
Conditions | mass density [kg/m3] | viscosity [mPa·s]
303.15 K | 1090.29 ± 2.2 | 1.8 ± 0.27
308.15 K | 1085.28 ± 2.2 | 1.665 ± 0.25
313.15 K | 1080.3 ± 2.2 | 1.529 ± 0.23
318.15 K | 1075.31 ± 2.2 | 1.407 ± 0.21
323.15 K | 1070.32 ± 2.2 | 1.304 ± 0.2
328.15 K | 1065.33 ± 2.1 | 1.211 ± 0.18
333.15 K | 1060.34 ± 2.1 | 1.127 ± 0.17
338.15 K | 1055.34 ± 2.1 | 1.056 ± 0.16
343.15 K | 1050.35 ± 2.1 | 0.989 ± 0.15
348.15 K | 1045.34 ± 2.1 | 0.931 ± 0.14
353.15 K | 1040.33 ± 2.1 | 0.878 ± 0.13

CN(C)C=O [dimethylformamide]
[2]
Conditions | mass density [kg/m3] | viscosity [mPa·s]
303.15 K | 939.18 ± 1.9 | 0.766 ± 0.12
308.15 K | 934.41 ± 1.9 | 0.723 ± 0.11
313.15 K | 929.64 ± 1.9 | 0.685 ± 0.1
318.15 K | 924.86 ± 1.9 | 0.651 ± 0.098
323.15 K | 920.07 ± 1.9 | 0.619 ± 0.093
328.15 K | 915.26 ± 1.8 | 0.589 ± 0.088
333.15 K | 910.44 ± 1.8 | 0.562 ± 0.084
338.15 K | 905.6 ± 1.8 | 0.537 ± 0.081
343.15 K | 900.74 ± 1.8 | 0.514 ± 0.077
348.15 K | 895.87 ± 1.8 | 0.493 ± 0.074
353.15 K | 890.98 ± 1.8 | 0.473 ± 0.071

CC(=O)N(C)C [N,N-dimethylethanamide]
[2]
Conditions | mass density [kg/m3] | viscosity [mPa·s]
303.15 K | 931.85 ± 2 | 0.891 ± 0.13
308.15 K | 927.26 ± 2 | 0.834 ± 0.12
313.15 K | 922.66 ± 2 | 0.785 ± 0.12
318.15 K | 918.06 ± 2 | 0.739 ± 0.11
323.15 K | 913.44 ± 1.9 | 0.698 ± 0.11
328.15 K | 908.81 ± 1.9 | 0.661 ± 0.099
333.15 K | 904.16 ± 1.9 | 0.627 ± 0.094
338.15 K | 899.53 ± 1.9 | 0.598 ± 0.09
343.15 K | 894.87 ± 1.9 | 0.567 ± 0.085
348.15 K | 890.19 ± 1.9 | 0.541 ± 0.081
353.15 K | 885.51 ± 1.9 | 0.516 ± 0.078

CN(C)C=O [dimethylformamide] + CCCCCCn1cc[n+](C)c1.[Cl-]
[1]
Conditions | mass density [kg/m3] | viscosity [mPa·s]
303.15 K | 939.18 ± 1.9 | 0.766 ± 0.12
308.15 K | 934.41 ± 1.9 | 0.723 ± 0.11
313.15 K | 929.64 ± 1.9 | 0.685 ± 0.1
318.15 K | 924.86 ± 1.9 | 0.651 ± 0.098
323.15 K | 920.07 ± 1.9 | 0.619 ± 0.093
328.15 K | 915.26 ± 1.8 | 0.589 ± 0.088
333.15 K | 910.44 ± 1.8 | 0.562 ± 0.084
338.15 K | 905.6 ± 1.8 | 0.537 ± 0.081
343.15 K | 900.74 ± 1.8 | 0.514 ± 0.077
348.15 K | 895.87 ± 1.8 | 0.493 ± 0.074
353.15 K | 890.98 ± 1.8 | 0.473 ± 0.071

C[S+](C)[O-] [dimethyl sulfoxide]
[2]
Conditions | mass density [kg/m3] | viscosity [mPa·s]
303.15 K | 1090.29 ± 2.2 | 1.8 ± 0.27
308.15 K | 1085.28 ± 2.2 | 1.665 ± 0.25
313.15 K | 1080.3 ± 2.2 | 1.529 ± 0.23
318.15 K | 1075.31 ± 2.2 | 1.407 ± 0.21
323.15 K | 1070.32 ± 2.2 | 1.304 ± 0.2
328.15 K | 1065.33 ± 2.1 | 1.211 ± 0.18
333.15 K | 1060.34 ± 2.1 | 1.127 ± 0.17
338.15 K | 1055.34 ± 2.1 | 1.056 ± 0.16
343.15 K | 1050.35 ± 2.1 | 0.989 ± 0.15
348.15 K | 1045.34 ± 2.1 | 0.931 ± 0.14
353.15 K | 1040.33 ± 2.1 | 0.878 ± 0.13

c1ccncc1 [pyridine] + CCCCCCn1cc[n+](C)c1.[Cl-]
[1]
Conditions | mass density [kg/m3] | viscosity [mPa·s]
303.15 K | 973.09 ± 1.9 | 0.843 ± 0.13
308.15 K | 968.06 ± 1.9 | 0.789 ± 0.12
313.15 K | 963.02 ± 1.9 | 0.741 ± 0.11
318.15 K | 957.97 ± 1.9 | 0.697 ± 0.11
323.15 K | 952.9 ± 1.9 | 0.658 ± 0.099
328.15 K | 947.82 ± 1.9 | 0.622 ± 0.093
333.15 K | 942.72 ± 1.9 | 0.59 ± 0.089
338.15 K | 937.6 ± 1.9 | 0.56 ± 0.084
343.15 K | 932.46 ± 1.9 | 0.533 ± 0.08
348.15 K | 927.3 ± 1.9 | 0.507 ± 0.076
353.15 K | 922.12 ± 1.9 | 0.485 ± 0.073
